pEC50: −log10 of the molar value. Read-outs that look alike come from different tables or passages of the source.
Tests used:
[1] = tested on: THP-1 cells; assay: Measurement of IL-1β production, hTRF protocol (second alternative procedure), THP-1 cells; type: cell-based, human; settings: Homo sapiens, THP-1, IL-1β production, read-out: NLRP3 hILIB EC50
Outline: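 THP-1 cells differentiated overnight with 50 ng/ml PMA, then plated at 50,000 cells/well in RPMI with 2% FBS onto serial compound dilutions (top final concentration 10 μM) for 2 hours at 37° C. Supernatant IL-1β measured by hTRF (antibodies at 1:40, overnight at 4° C), read at 665/615 nm against a standard curve.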

[2] = target: T1, TLR7 (Homo sapiens, UniProt Q9NYK1); assay: In vitro human TLR7 binding reporter assay (HEK-Blue, NF-kB/AP1-inducible SEAP); type: cell-based; settings: read-out: TLR7 Agonist EC50
T1 construct: human HEK-Blue cells co-expressing a TLR7 or TLR8 gene
T1 sequence (Q9NYK1 27-1049): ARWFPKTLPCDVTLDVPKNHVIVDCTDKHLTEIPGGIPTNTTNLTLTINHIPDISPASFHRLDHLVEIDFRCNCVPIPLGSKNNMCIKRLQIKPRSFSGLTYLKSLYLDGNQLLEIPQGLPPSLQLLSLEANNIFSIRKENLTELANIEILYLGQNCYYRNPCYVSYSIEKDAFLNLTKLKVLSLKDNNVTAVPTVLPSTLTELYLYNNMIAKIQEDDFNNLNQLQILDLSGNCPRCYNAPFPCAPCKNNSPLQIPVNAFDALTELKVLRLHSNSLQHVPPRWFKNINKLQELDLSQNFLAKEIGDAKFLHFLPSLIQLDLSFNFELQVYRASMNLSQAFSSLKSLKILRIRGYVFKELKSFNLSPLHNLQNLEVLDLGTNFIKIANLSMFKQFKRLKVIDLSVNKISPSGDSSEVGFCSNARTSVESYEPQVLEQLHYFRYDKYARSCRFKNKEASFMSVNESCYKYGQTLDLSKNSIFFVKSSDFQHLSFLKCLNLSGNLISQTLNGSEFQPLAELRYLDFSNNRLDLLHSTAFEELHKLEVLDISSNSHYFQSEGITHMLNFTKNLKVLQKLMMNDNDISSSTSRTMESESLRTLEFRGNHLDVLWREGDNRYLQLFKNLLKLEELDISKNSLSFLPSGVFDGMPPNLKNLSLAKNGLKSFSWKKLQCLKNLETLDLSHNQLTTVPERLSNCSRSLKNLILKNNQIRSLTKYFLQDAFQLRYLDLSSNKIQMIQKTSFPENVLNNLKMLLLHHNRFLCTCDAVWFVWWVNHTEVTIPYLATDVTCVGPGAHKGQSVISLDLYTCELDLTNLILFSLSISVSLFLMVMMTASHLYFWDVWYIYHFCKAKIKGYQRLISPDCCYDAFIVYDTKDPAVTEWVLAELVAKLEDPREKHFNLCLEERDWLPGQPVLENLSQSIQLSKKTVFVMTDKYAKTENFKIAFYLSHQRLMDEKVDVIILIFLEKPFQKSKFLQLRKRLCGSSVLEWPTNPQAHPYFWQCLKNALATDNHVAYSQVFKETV
Outline: (§1)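 EC50s come from NF-kB/AP1-driven SEAP secretion in HEK-Blue cells expressing TLR7 or TLR8, measured with Quanti-Blue after an 18 h compound incubation. Maximal response is defined by a 50 μM reference standard.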

[3] = target: T2, TLR8 (Homo sapiens, UniProt Q9NR97); assay: In vitro human TLR8 binding reporter assay (HEK-Blue, NF-kB/AP1-inducible SEAP); type: cell-based; settings: read-out: TLR8 Agonist EC50
T2 construct: human HEK-Blue cells co-expressing a TLR7 or TLR8 gene
T2 sequence (Q9NR97 27-1041): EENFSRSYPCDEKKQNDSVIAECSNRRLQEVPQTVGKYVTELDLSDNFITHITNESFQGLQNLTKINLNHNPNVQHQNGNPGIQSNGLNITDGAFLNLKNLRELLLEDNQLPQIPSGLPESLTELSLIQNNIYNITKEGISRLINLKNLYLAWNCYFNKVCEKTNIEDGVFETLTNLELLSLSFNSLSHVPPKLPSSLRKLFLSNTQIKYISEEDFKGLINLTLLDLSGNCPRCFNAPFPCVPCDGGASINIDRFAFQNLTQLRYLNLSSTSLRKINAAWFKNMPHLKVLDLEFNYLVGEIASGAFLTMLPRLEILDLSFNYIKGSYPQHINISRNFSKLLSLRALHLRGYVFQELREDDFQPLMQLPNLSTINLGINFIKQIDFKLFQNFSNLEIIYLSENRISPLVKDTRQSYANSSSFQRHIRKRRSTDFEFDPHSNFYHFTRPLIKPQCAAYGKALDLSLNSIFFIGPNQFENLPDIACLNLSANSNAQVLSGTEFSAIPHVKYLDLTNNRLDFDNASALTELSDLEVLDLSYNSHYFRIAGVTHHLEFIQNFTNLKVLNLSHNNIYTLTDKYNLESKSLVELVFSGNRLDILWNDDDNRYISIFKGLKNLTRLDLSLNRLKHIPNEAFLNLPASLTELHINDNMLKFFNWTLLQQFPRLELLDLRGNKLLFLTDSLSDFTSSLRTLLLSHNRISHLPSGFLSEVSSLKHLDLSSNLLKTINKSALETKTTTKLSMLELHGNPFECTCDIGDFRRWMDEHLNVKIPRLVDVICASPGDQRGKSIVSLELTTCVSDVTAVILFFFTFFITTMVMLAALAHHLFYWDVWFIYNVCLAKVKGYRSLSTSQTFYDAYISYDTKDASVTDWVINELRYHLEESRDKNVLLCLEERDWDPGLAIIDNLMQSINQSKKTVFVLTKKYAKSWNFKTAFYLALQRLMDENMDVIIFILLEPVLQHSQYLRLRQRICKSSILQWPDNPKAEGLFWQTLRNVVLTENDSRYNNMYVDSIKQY
Outline: as §1

Structure (SMILES)	pEC50 ([1]; human)	pEC50 ([2]; activity range class)	pEC50 ([3]; activity range class)	pEC50 ([1]; human cells)	pEC50 ([2]; activity range)	pEC50 ([3]; activity range)
Nc1nc2cc(-c3cc[nH]n3)ccc2c2nn(CCNC(=O)C3CCCCO3)cc12 (stereo not drawn) [Example 199]	5.35	< 4.00	< 4.00			
COCCS(=O)(=O)NCCc1cc2c(N)nc3cc(-c4cc[nH]n4)ccc3c2[nH]1 [Example 498]				5.62	< 4.00	< 4.00
COCCn1cc2c(n1)c(N)nc1cc(-c3ccn[nH]3)ccc12 [Example 185]	6.68	4.70 to 6.00	< 4.00			
Nc1nc2cc(-c3cc[nH]n3)ccc2c2[nH]c(CN3C[C@H]4COC[C@H]4C3)cc12 [Example 490]				6.08	< 4.00	< 4.00
Nc1nc2cc(-n3cccn3)ccc2c2cn(CC3CCCCO3)nc12 (stereo not drawn) [Example 18]	5.95	4.00 to 4.70	< 4.00			
CCCn1ncc2c(N)nc3cc(-c4cc[nH]n4)ccc3c21 [Example 221]	6.68	< 4.00	< 4.00			
Nc1nc2cc(-c3cc[nH]n3)ccc2c2n[nH]cc12 [Example 457, 7-(1H-pyrazol-3-yl)-2H-pyrazolo[4,3-c]quinolin-4-amine]				6.80	< 4.00	< 4.00
Nc1nc2cc(-c3cc[nH]n3)ccc2c2cn(CCNC(=O)c3cscn3)nc12 [Example 95]	7.05	< 4.00	< 4.00			
Nc1nc2cc(-c3cc[nH]n3)ccc2c2nn(CCOCC(F)(F)F)cc12 [Example 333]	6.62	< 4.00	< 4.00			
COC1CN(Cc2cc3c(N)nc4cc(-c5cc[nH]n5)ccc4c3[nH]2)C1 [Example 479]				7.10	< 4.00	< 4.00
Nc1nc2cc(-c3cc[nH]n3)ccc2c2cn(CCNC(=O)c3cccnc3)nc12 [Example 38]	5.31	< 4.00	< 4.00			
CN(C)CCn1cc2c(n1)c(N)nc1cc(-c3cc[nH]n3)ccc12 [Example 21]	5.68	4.00 to 4.70	< 4.00			
Nc1nc2cc(-c3cc[nH]n3)ccc2c2[nH]c(CCNS(=O)(=O)c3ccccc3)cc12 [Example 484]				5.85	< 4.00	< 4.00
CC(C)(C)OC(=O)NCCn1cc2c(n1)c(N)nc1cc(-c3cccs3)ccc12 [Example 127, tert-butyl N-{2-[4-amino-7-(thiophen-2-yl)-2H-pyrazolo[3,4-c]quinolin-2-yl]ethyl}carbamate]	5.98	< 4.00	< 4.00			
CC(O)Cn1cc2c(N)nc3cc(-c4ccn[nH]4)ccc3c2n1 (stereo not drawn) [Example 282]	7.00	< 4.00	< 4.00			
CCOCCn1ncc2c(N)nc3cc(-c4cc[nH]n4)ccc3c21 [Example 223]	6.35	< 4.00	< 4.00			
Cc1c(CN[C@H]2CCOC2)[nH]c2c1c(N)nc1cc(-c3cc[nH]n3)ccc12 [Example 469]				6.08	< 4.00	< 4.00
N#C[C@H]1CCN(C(=O)CCn2cc3c(N)nc4cc(-c5cc[nH]n5)ccc4c3n2)C1 [Example 516]				5.01	< 4.00	< 4.00
CC(C)(Cn1cc2c(N)nc3cc(-c4ccn[nH]4)ccc3c2n1)C(=O)N1CCOCC1 [Example 591]				4.77	< 4.00	< 4.00
Nc1nc2cc(-c3cc[nH]n3)ccc2c2nn(CCC(F)(F)F)cc12 [Example 348]	6.21	< 4.00	< 4.00			
COCCCCn1ncc2c(N)nc3cc(-c4cc[nH]n4)ccc3c21 [Example 219]	6.52	< 4.00	< 4.00			
COC1CCN(C(=O)C(C)(C)Cn2cc3c(N)nc4cc(-c5ccn[nH]5)ccc4c3n2)CC1 [Example 610]				5.36	< 4.00	< 4.00
CC(CCO)n1cc2c(n1)c(N)nc1cc(-c3ccn[nH]3)ccc12 (stereo not drawn) [Example 454]				6.43	< 4.00	< 4.00
Nc1nc2cc(-c3ccn[nH]3)ccc2c2[nH]c(CN3CCOCC3)cc12 [Example 411, 2-[(morpholin-4-yl)methyl]-7-(1H-pyrazol-5-yl)-1H-pyrrolo[3,2-c]quinolin-4-amine]				6.19	< 4.00	< 4.00
CCNC(=O)Cn1cc2c(n1)c(N)nc1cc(-c3cc[nH]n3)ccc12 [Example 529]				6.06	< 4.00	< 4.00
Nc1nc2cc(-c3cc[nH]n3)ccc2c2nn(C[C@@H]3CCCO3)cc12 [Example 330]	6.77	< 4.00	< 4.00			
Cc1c(CN2CCOCC2)[nH]c2c1c(N)nc1cc(-c3cc[nH]n3)ccc12 [Example 468]				5.79	< 4.00	< 4.00
CC(CCO)n1cc2c(N)nc3cc(-c4ccn[nH]4)ccc3c2n1 (stereo not drawn) [Example 281]	6.62	< 4.00	< 4.00			
Nc1nc2cc(-c3cc[nH]n3)ccc2c2nn(C3CCOCC3)cc12 [Example 236]	6.10	< 4.00	< 4.00			

— US12037344B2, “NLRP3 modulators” (INNATE TUMOR IMMUNITY, INC., priority 2018, dated 2024)
